In the NIST ThermoML archive (doi:10.1016/j.jct.2010.02.010):

Settings: for mass density: 101.33 kPa, Buoyancy - hydrostatic balance; for mass density / surface tension liquid-gas: Liquid; for surface tension liquid-gas: Maximal bubble pressure

CCCC[n+]1ccccc1.[O]=[Re](=[O])(=[O])[O-] [1-butylpyridinium perrhenate]
Settings | mass density [kg/m3] | surface tension liquid-gas [mN/m]
293.15 K | 1910.1 | 41.6
298.15 K | 1902.5 | 41.2
303.15 K | 1894.9 | 40.7
308.15 K | 1886.9 | 40.5
313.15 K | 1881.8 | 40
318.15 K | 1877.6 | 39.7
323.15 K | 1869.2 | 39.4
328.15 K | 1862.7 | 39
333.15 K | 1856.9 | 38.6
338.15 K | 1853.2 | 38.3
343.15 K | 1846.8 | 38.2

Settings | Glass transition temperature [°C]
Glass, DTA | -66
